Experimental data from patent US9049864B2, “Pyridazinone herbicidal compounds” (Syngenta Limited, priority 2012, dated 2015).

Tests used:
Assay in all cases: Post-emergence herbicidal glasshouse test, percentage damage to the plant
Assay type in all cases: in vivo
[1] = tested on: Alopecurus myosuroides (ALOMY)
Summary of the method: (§1)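 Activity appears as a score from 1 (0-19% damage) to 5 (80-100%), assessed 13 days after a post-emergence spray of 8-day-old plants. Comparative runs used 250, 500 and 1000 g/ha; the standard rate was 1000 g/ha, formulated in acetone/water (50:50) with 0.5% Tween 20.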

[2] = tested on: Amaranthus retoflexus (AMARE)
Summary of the method: as §1

[3] = tested on: Echinochloa crus-galli (ECHCG)
Summary of the method: as §1

[4] = tested on: Ipomoea hederacea (IPOHE)
Summary of the method: as §1

[5] = tested on: Setaria faberi (SETFA)
Summary of the method: as §1

[6] = tested on: Solanum nigrum (SOLNI)
Summary of the method: as §1

[7] = post-emergence, 1000 g/ha, evaluated after 13 days
[8] = comparative experiment, rate 250 g/ha
[9] = comparative experiment, rate 500 g/ha
[10] = comparative experiment, rate 1000 g/ha

| Structure (SMILES) | POST Application ALOMY, percentage damage (five point scale) [1, 7] | POST Application AMARE, percentage damage (five point scale) [2, 7] | POST Application ECHCG, percentage damage (five point scale) [3, 7] | POST Application IPOHE, percentage damage (five point scale) [4, 7] | POST Application SETFA, percentage damage (five point scale) [5, 7] | POST Application SOLNI, percentage damage (five point scale) [6, 7] | further results |
| --- | --- | --- | --- | --- | --- | --- | --- |
| COCCOCC1=NN(C)C(=O)C(n2c(Cl)c(Cl)c3ccccc32)C1=O (stereo not drawn) [Compound 2.015] | 1 (1=0-19%) | 2 (2=20-39%) | 1 (1=0-19%) | 5 (5=80-100%) | 1 (1=0-19%) | 4 (4=60-79%) | – |
| CC1=NN(C)C(=O)C(n2ccc3ccccc32)C1=O (stereo not drawn) [Compound 1.002] | 1 (1=0-19%) | 4 (4=60-79%) | 1 (1=0-19%) | 4 (4=60-79%) | 1 (1=0-19%) | 5 (5=80-100%) | – |
| CN1N=C(COCC(F)(F)F)C(=O)C(n2c(Cl)c(Cl)c3ccccc32)C1=O (stereo not drawn) [Compound 2.012] | 1 (1=0-19%) | 1 (1=0-19%) | 1 (1=0-19%) | 4 (4=60-79%) | 1 (1=0-19%) | 4 (4=60-79%) | – |
| CC1=NN(C)C(=O)C(n2c(C)cc3ccccc32)C1=O (stereo not drawn) [Compound 4.026] | 2 (2=20-39%) | 4 (4=60-79%) | 2 (2=20-39%) | 5 (5=80-100%) | 3 (3=40-59%) | 5 (5=80-100%) | – |
| CN1N=CC(=O)C(n2ncc3ccccc32)C1=O (stereo not drawn) [Compound 1.009] | 1 (1=0-19%) | 4 (4=60-79%) | 1 (1=0-19%) | 1 (1=0-19%) | 1 (1=0-19%) | 4 (4=60-79%) | – |
| CCC1=NN(C)C(=O)C(n2c(Cl)c(Cl)c3ccccc32)C1=O (stereo not drawn) [Compound 2.027] | 1 (1=0-19%) | 4 (4=60-79%) | 1 (1=0-19%) | 5 (5=80-100%) | 1 (1=0-19%) | 5 (5=80-100%) | – |
| CC1=NN(C)C(=O)C(n2c(Cl)c(Cl)c3ccccc32)C1=O (stereo not drawn) [Compound 1.003, 4-(2,3-dichloroindol-1-yl)-2,6-dimethyl-pyridazine-3,5-dione] | 1 (1=0-19%) | 5 (5=80-100%) | 2 (2=20-39%) | 5 (5=80-100%) | 1 (1=0-19%) | 5 (5=80-100%) | – |
| CN1N=C(Br)C(=O)C(n2c(Cl)c(Cl)c3ccccc32)C1=O (stereo not drawn) [Compound 2.028] | 1 (1=0-19%) | 5 (5=80-100%) | 1 (1=0-19%) | 5 (5=80-100%) | 1 (1=0-19%) | 5 (5=80-100%) | – |
| CN1N=C(C#N)C(=O)C(n2c(Cl)c(Cl)c3ccccc32)C1=O (stereo not drawn) [Compound 2.001] | 1 (1=0-19%) | 3 (3=40-59%) | 2 (2=20-39%) | 5 (5=80-100%) | 2 (2=20-39%) | 5 (5=80-100%) | – |
| CN1N=CC(=O)C(n2ccc3cc(Cl)ccc32)C1=O (stereo not drawn) [Compound 1.017] | 1 (1=0-19%) | 3 (3=40-59%) | 1 (1=0-19%) | 4 (4=60-79%) | 1 (1=0-19%) | 5 (5=80-100%) | – |
| C=CCC1=NN(C)C(=O)C(n2c(Cl)c(Cl)c3ccccc32)C1=O (stereo not drawn) [Compound 2.025] | 1 (1=0-19%) | 2 (2=20-39%) | 2 (2=20-39%) | 5 (5=80-100%) | 2 (2=20-39%) | 5 (5=80-100%) | – |
| CCSC1=NN(C)C(=O)C(n2c(Cl)c(Cl)c3ccccc32)C1=O (stereo not drawn) [Compound 2.017] | 1 (1=0-19%) | 4 (4=60-79%) | 2 (2=20-39%) | 1 (1=0-19%) | 1 (1=0-19%) | 3 (3=40-59%) | – |
| CC1=NN(C)C(=O)C(n2c(Br)c(Br)c3ccc(Br)cc32)C1=O (stereo not drawn) [Compound 1.023] | 2 (2=20-39%) | 5 (5=80-100%) | 3 (3=40-59%) | 5 (5=80-100%) | 1 (1=0-19%) | 5 (5=80-100%) | – |
| CC[S+]([O-])C1=NN(C)C(=O)C(n2c(Cl)c(Cl)c3ccccc32)C1=O (stereo not drawn) [Compound 2.006] | 1 (1=0-19%) | 1 (1=0-19%) | 1 (1=0-19%) | 4 (4=60-79%) | 1 (1=0-19%) | 4 (4=60-79%) | – |
| CN1N=CC(=O)C(n2cc(Cl)c3ccccc32)C1=O (stereo not drawn) [Compound 1.012, 4-(3-Chloro-indol-1-yl)-2-methyl-2H-pyridazine-3,5-dione] | 1 (1=0-19%) | 5 (5=80-100%) | 2 (2=20-39%) | 5 (5=80-100%) | 5 (5=80-100%) | 5 (5=80-100%) | – |
| Cc1nn(C)c(=O)c(-n2c(Cl)c(Cl)c3ccccc32)c1OC(=O)C(C)(C)C [Compound 3.008] | 2 (2=20-39%) | 5 (5=80-100%) | 3 (3=40-59%) | 5 (5=80-100%) | 1 (1=0-19%) | 5 (5=80-100%) | – |
| CC1=NN(C)C(=O)C(n2nc(C(F)(F)F)cc2C)C1=O (stereo not drawn) [Compound A, reference compound] | – | – | – | – | – | – | POST Application ALOMY, percentage damage (five point scale) [1, 8]: 1 (1=0-19%); POST Application ALOMY, percentage damage (five point scale) [1, 9]: 1 (1=0-19%); POST Application ALOMY, percentage damage (five point scale) [1, 10]: 2 (2=20-39%); POST Application AMARE, percentage damage (five point scale) [2, 8]: 3 (3=40-59%); POST Application AMARE, percentage damage (five point scale) [2, 9]: 4 (4=60-79%); POST Application AMARE, percentage damage (five point scale) [2, 10]: 4 (4=60-79%); POST Application ECHCG, percentage damage (five point scale) [3, 8]: 1 (1=0-19%); POST Application ECHCG, percentage damage (five point scale) [3, 9]: 2 (2=20-39%); POST Application ECHCG, percentage damage (five point scale) [3, 10]: 3 (3=40-59%); POST Application IPOHE, percentage damage (five point scale) [4, 8]: 4 (4=60-79%); POST Application IPOHE, percentage damage (five point scale) [4, 9]: 5 (5=80-100%); POST Application IPOHE, percentage damage (five point scale) [4, 10]: 5 (5=80-100%); POST Application SETFA, percentage damage (five point scale) [5, 8]: 1 (1=0-19%); POST Application SETFA, percentage damage (five point scale) [5, 9]: 1 (1=0-19%); POST Application SETFA, percentage damage (five point scale) [5, 10]: 2 (2=20-39%); POST Application SOLNI, percentage damage (five point scale) [6, 8]: 3 (3=40-59%); POST Application SOLNI, percentage damage (five point scale) [6, 9]: 4 (4=60-79%); POST Application SOLNI, percentage damage (five point scale) [6, 10]: 5 (5=80-100%) |
